Experimental data taken from patent US5245077A, “L-buthionine-S-sulfoximine and methods of making” (Cornell Research Foundation Inc., priority 1992, dated 1993).
Entries after “also recorded” stand apart in the source; their conditions may differ. Where two headings read alike, the source gives them in different places. One block for each molecule: values may come before it.

Legend:
[1] = test system: tissue glutathione levels; experiment: Glutathione depletion in mice (tissue glutathione levels); type: in vivo; conditions: for glutathione level of kidney / glutathione level of liver / glutathione level of pancreas: 2 hours after injection; for glutathione level of kidney: L-SR and D-SR 0.4 mmole/kg, L-S and L-R 0.2 mmole/kg; for depletion of glutathione in liver (in words) / depletion of glutathione in pancreas (in words): L-R 0.2 mmole/kg, D-SR 0.4 mmole/kg; for glutathione level of liver / glutathione level of pancreas: SR 0.4 mmole/kg, S 0.2 mmole/kg
Procedure: Tissue glutathione levels were determined as described in Griffith, O. W., Anal. Biochem. 106, 207-212, (1980).
Thirty two mice were given physiological saline, 4 mice were given 0.4 mmole/kg of L-buthionine-SR-sulfoximine, 4 mice were given 0.2 mmole/kg of L-buthionine-S-sulfoximine, 4 mice were given 0.2 mmoles/kg of L-buthionine-R-sulfoximine and 4 mice were given 0.4 mmole/kg or D-buthionine-SR-sulfoximine. All injections were given intraperitoneally. Two hours after injection, the mice were killed, and the glutathione levels in the brain, liver, pancreas, and kidney were determined.

[2] = target: T1, gamma-glutamylcysteine synthetase (Rattus norvegicus, UniProt P19468); experiment: Inhibition of gamma-glutamylcysteine synthetase (coupled PK/LDH assay, NADH absorbance at 340 mμ); type: biochemical; conditions: for Ki / binding mode: versus glutamate; for Ki: Lineweaver-Burk plot
T1 sequence (P19468 1-637): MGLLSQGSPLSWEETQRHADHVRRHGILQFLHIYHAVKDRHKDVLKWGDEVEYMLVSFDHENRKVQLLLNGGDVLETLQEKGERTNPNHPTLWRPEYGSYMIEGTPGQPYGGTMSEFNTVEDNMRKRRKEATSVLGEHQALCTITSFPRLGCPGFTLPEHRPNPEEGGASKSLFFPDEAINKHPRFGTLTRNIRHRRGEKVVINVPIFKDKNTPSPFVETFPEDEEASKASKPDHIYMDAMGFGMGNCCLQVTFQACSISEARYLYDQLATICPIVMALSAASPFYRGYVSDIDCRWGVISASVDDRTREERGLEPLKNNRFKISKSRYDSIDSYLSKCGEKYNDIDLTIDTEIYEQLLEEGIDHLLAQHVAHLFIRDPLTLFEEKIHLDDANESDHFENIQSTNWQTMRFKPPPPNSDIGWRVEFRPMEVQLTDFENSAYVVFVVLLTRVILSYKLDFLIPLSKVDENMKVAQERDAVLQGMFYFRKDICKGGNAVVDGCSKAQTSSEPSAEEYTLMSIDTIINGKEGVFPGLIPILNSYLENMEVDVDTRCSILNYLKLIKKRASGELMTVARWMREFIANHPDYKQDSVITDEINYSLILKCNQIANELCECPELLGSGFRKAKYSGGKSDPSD
T1 sequence (P48508 1-274 partner): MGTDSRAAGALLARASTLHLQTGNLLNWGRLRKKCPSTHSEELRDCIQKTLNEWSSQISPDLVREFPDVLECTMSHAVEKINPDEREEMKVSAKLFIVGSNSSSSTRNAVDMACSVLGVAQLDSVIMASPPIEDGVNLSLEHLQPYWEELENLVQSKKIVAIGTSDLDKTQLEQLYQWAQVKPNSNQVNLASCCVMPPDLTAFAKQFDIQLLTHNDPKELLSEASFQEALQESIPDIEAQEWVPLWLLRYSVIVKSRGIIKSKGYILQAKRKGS
Procedure: L-buthionine-S-sulfoximine, L-buthionine-R-sulfoximine and D-buthionine-SR-sulfoximine were assayed for ability to inhibit gamma-glutamylcysteine synthetase.
The assay procedure used is similar to that described in Griffith, O. W., J. Biol. Chem. 257, 13704-13712 (1982).
The assay is based on the following reactions wherein GS is used to denote gamma-glutamylcysteine synthetase, PK is used to denote pyruvate kinase, LDH is used to denote lactate dehydrogenase, NADH is used to denote reduced beta-nicotinamide adenine dinucleotide, NAD^+ is used to denote oxidized beta-nictoninamide adenine dinucleotide, ATP is used to denote adenosine triphosphate, ADP is used to denote adenosine diphosphate, and Pi is used to denote inorganic phosphate.
The assay is based on the fact that the velocity of the reaction to produce gamma-glutamylaminobutyrate is reduced to the extent that GS is inhibited. […] Reactions (2) and (3) are a detection system for ADP wherein ADP, as it is produced, reacts with phosphoenolpyruvate to produce pyruate, which reacts with NADH to produce NAD^+. […] Thus, progress of the GS reaction results in a decrease in the absorbence of the solution at 340 mμ and, if GS is inhibited, the decrease in absorbence at 340 mμ occurs at a slower rate. Such studies are carried out at several concentrations of inhibitor.
Each test for inhibition was carried out in a cuvette containing in a final volume of 1 ml the following: 150 mM Tris-HCl buffer (pH 8.2), 75 mM KCl, 10 mM ATP, 5 mM phosphoenolpyruvate, 25 mM MgCl2, 1 to 5 mM L-glutamate, 10 mM α-amino-L-butyrate, 0.3 mM NADH, 0.2 mM EDTA, 10 International Units of PK, 10 International Units of LDH and 0.03 International Units of GS. […] Four sets of runs were made with 1 mM glutamate; 4 sets of runs were made with 1.7 mM glutamate; 4 sets of runs was made with 2.5 mM glutamate and 4 sets of runs were made with 5 mM glutamate. At each glutamate concentration, one set of runs were made with no inhibitor. For studies with L-buthionine-R-sulfoximine the other 3 sets of runs contained 0.05, 0.1, 0r 0.2 mM inhibitor. For studies with D-buthionine-SR-sulfoximine, the other 3 sets of runs contained 2, 5 or 10 mM inhibitor.
For each test run the temperature was kept at 37° C. and GS was added last to start the reaction. The reaction velocity was followed from the decrease in absorbence at 340 mμ (a decrease of 0.62 in optical density indicates 0.1 μmol of product was formed).
A Lineweaver-Burk plot was then prepared.
Complete inhibition was obtained in less than 5 min with either concentration tested.

[3] = target: T1, gamma-glutamylcysteine synthetase; conditions: cited from earlier work
[4] = test system: Tumors in mice; conditions: with ionizing radiation and various chemotherapeutic agents; cited from earlier work
[5] = test system: Glutathione synthesis in tissues and cells; conditions: in vitro or in vivo; cited from earlier work
[6] = test system: cystine transport; conditions: cited from earlier work
[7] = Transport of 35S-labelled isomers into tissues (tissue content); type: in vivo, mice; conditions: 2 mmole/kg i.p., 2 hours
Procedure: The transport of L-buthionine-S-sulfoximine and L-buthionine-R-sulfoximine into tissues was examined using preparations of each isomer radiolabeled with ^35 S.
L-[^35 S]-Buthionine-SR-sulfoximine was prepared from L-[^35 S]methionine as described previously (Griffith, O. W., J. Biol. Chem. 257, 13704-13712 (1982)). The preparation was separated into L-[^35 S]-buthionine-S-sulfoximine and L-[^35 S]-buthionine-R-sulfoximine by chromatography using Cu^++ D-proline buffer as described in Example III.
Twelve mice were injected intraperitoneally with L-[^35 S]-buthionine-S-sulfoximine and 12 mice were injected intraperitoneally with L-buthionine-R-sulfoximine. For all mice the dose was 2 mmole/kg. After 2 hours the mice were sacrificed, and the radioactivity contained in the various tissues was determined by liquid scintillation counting. From that determination and from the known specific activity of the compounds injected, the tissue content of either L-buthionine-S-sulfoximine or L-buthionine-R-sulfoximine was calculated. The results in μmole/gm tissue were as follows (tissue, content of L-buthionine-S-sulfoximine, content of L-buthionine-R-sulfoximine): brain, 0.11, 0.17; lung, 0.53, 0.55; heart, 0.33, 0.49; liver, 0.11, 0.16; spleen 0.51, 0.59; small intestine, 0.34, 0.39; large intestine, 0.25, 0.20; testes, 0.45, 0.50; skeletal muscle, 0.18, 0.24.

[8] = test system: L-glutamylcysteine uptake; conditions: kidney; cited from earlier work
[9] = test system: Trypanosoma b. brucei; conditions: mice infected with Trypanosoma b. brucei; cited from earlier work

inhibition of gamma-glutamylcysteine synthetase (in words) [2]: weak and reversible inhibitors | reversibility of inhibition [2]: reversible inhibitor | Ki ([2]; 37° C., pH 8.2): 5200 µM | binding mode [2]: competitive with glutamate
Compound: CCCCS(=N)(=O)CC[C@@H](N)C(=O)O (stereo partly drawn) [D-buthionine-SR-sulfoximine, reference compound]
glutathione level of kidney ([1]; kidney, i.p.): 70 % of control | depletion of glutathione in liver (in words) ([1]; i.p., 2 hours): did not cause significant depletion of glutathione | depletion of glutathione in pancreas (in words) ([1]; i.p., 2 hours): did not cause significant depletion of glutathione

Compound: CCCCS(=N)(=O)CC[C@H](N)C(=O)O (stereo partly drawn) [L-buthionine-SR-sulfoximine, L-(S-n-butyl)homocysteine-SR-sulfoximine]
glutathione level of kidney ([1]; kidney, i.p.): 27 % of control | glutathione level of liver ([1]; i.p.): 52 % of control | glutathione level of pancreas ([1]; i.p.): about 42 % of control | inhibition of gamma-glutamylcysteine synthetase (in words) [3]: potent and specific inhibitor of gamma-glutamylcysteine synthetase | effect on tumors in mice (in words) [4]: become glutathione depleted and more susceptible to the cytotoxic effects of ionizing radiation and various chemotherapeutic agents | glutathione synthesis in tissues and cells (in words) [5]: Glutathione synthesis is decreased | effect on cystine transport (in words) [6]: deleterious effect on cystine transport

Compound: N[C@@H](CCC(=O)O)C(=O)O [glutamate, L-glutamate]
Km ([2]; read-out: Km for glutamate, without inhibitor, 37° C., pH 8.2): 1700 ± 300 µM

Compound: CCCC[S@@](=N)(=O)CC[C@H](N)C(=O)O [L-buthionine-R-sulfoximine]
depletion of glutathione in brain (in words) ([1]; brain, i.p., 2 hours): no significant effect on glutathione levels | effect on glutathione level in kidney (in words) ([1]; kidney): only a small effect on glutathione level in kidney | glutathione level of kidney ([1]; kidney, i.p.): 87 % of control | depletion of glutathione in liver (in words) ([1]; i.p., 2 hours): no significant effect on glutathione levels; also recorded: did not cause significant depletion of glutathione | depletion of glutathione in pancreas (in words) ([1]; i.p., 2 hours): no significant effect on glutathione levels; also recorded: did not cause significant depletion of glutathione | inhibition of gamma-glutamylcysteine synthetase (in words) [2]: weak and reversible inhibitors | reversibility of inhibition [2]: reversible inhibitor | Ki ([2]; 37° C., pH 8.2): 110 µM | binding mode [2]: competitive with glutamate | tissue content, brain [7]: 0.17 μmole/gm tissue | uptake or retention by some tissues (in words) ([7]; e.g., heart and liver): more effectively than L-buthionine-S-sulfoximine | tissue content, heart [7]: 0.49 μmole/gm tissue | tissue content, large intestine [7]: 0.20 μmole/gm tissue | tissue content, liver [7]: 0.16 μmole/gm tissue | tissue content, lung [7]: 0.55 μmole/gm tissue | tissue content, skeletal muscle [7]: 0.24 μmole/gm tissue | tissue content, small intestine [7]: 0.39 μmole/gm tissue | tissue content, spleen [7]: 0.59 μmole/gm tissue | tissue content, testes [7]: 0.50 μmole/gm tissue

Compound: CCCCS(=O)(=O)CC[C@H](N)C(=O)O [L-buthionine sulfone]
L-glutamylcysteine uptake from the tubule (in words) [8]: inhibition of L-glutamylcysteine uptake from the tubule

Compound: C[S@](=N)(=O)CC[C@H](N)C(=O)O [L-methionine-S-sulfoximine]
inhibition of gamma-glutamylcysteine synthetase (in words) [3]: the only diastereomer of DL-methionine-SR-sulfoximine that inhibits gamma-glutamylcysteine synthetase

Compound: CCCCS(=N)(=O)CCC(N)C(=O)O (racemic) [DL-buthionine-SR-sulfoximine]
survival of infected mice (in words) [9]: extended survival and in some cases to be cured

Compound: CCCC[S@](=N)(=O)CC[C@H](N)C(=O)O [L-buthionine-S-sulfoximine]
depletion of tissue glutathione levels in several tissues (in words) ([1]; compared with L-buthionine-SR-sulfoximine at twice the dose): as effectively as L-buthionine-SR-sulfoximine given at twice the dose | glutathione level of kidney ([1]; kidney, i.p.): 27 % of control | glutathione level of liver ([1]; i.p.): 41 % of control | glutathione level of pancreas ([1]; i.p.): about 42 % of control | inhibition of gamma-glutamylcysteine synthetase (in words) [2]: strongly and irreversibly inhibits | reversibility of inhibition [2]: irreversible inhibition | time to complete inhibition ([2]; 0.01 or 0.1 mM inhibitor, either concentration): less than 5 min | reversal of inhibition by dilution or gel permeation chromatography ([2]; buffers containing ATP and MgCl2): could not be reversed | tissue content, brain [7]: 0.11 μmole/gm tissue | tissue content, heart [7]: 0.33 μmole/gm tissue | tissue content, large intestine [7]: 0.25 μmole/gm tissue | tissue content, liver [7]: 0.11 μmole/gm tissue | tissue content, lung [7]: 0.53 μmole/gm tissue | tissue content, skeletal muscle [7]: 0.18 μmole/gm tissue | tissue content, small intestine [7]: 0.34 μmole/gm tissue | tissue content, spleen [7]: 0.51 μmole/gm tissue | tissue content, testes [7]: 0.45 μmole/gm tissue
